According to EP0792649A1, “Treatment of sleep disorders” (ELI LILLY AND COMPANY, priority 1996, dated 1997):

Legend:
Format in all cases: in vivo, Sprague-Dawley rats
NE = assay: Microdialysis assays of monoamines: NE level in hypothalamus dialysate of conscious rats
Protocol: (§1) The tests were carried out as follows.
(§2) Sprague-Dawley rats (Harlan or Charles River) weighing 270-300 grams were surgically implanted with microdialysis probes under chloral hydrate/pentobarbital anesthesia (170 and 36 mg/kg i.p. in 30% propylene glycol, 14% ethanol) (Perry and Fuller, Effect of fluoxetine on serotonin and dopamine concentration in rat hypothalamus after administration of fluoxetine plus L-5-hydroxytryptophan, Life Sci., 50, 1683-90 (1992)). A David Kopf stereotaxic instrument was used to implant the probe unilaterally in the hypothalamus at coordinates rostral -1.5 mm, lateral -1.3 mm, and ventral -9.0 mm (Paxinos and Watson, 1986). After a 48 hour recovery period, rats were placed in a large plastic bowl with a mounted liquid swivel system (CMA/120 system for freely moving animals, Bioanalytical Systems, West Lafayette, IN). Filtered artificial cerebrospinal fluid (CSF) (150 mM NaCl, 3.0 mM KCl, 1.7 mM CaCl2, and 0.9 mM MgCl2) was perfused through the probe at a rate of 1.0 µl/min. The output dialysate line was fitted to a tenport HPLC valve with a 20 µl loop. At the end of each 30 minute sampling period, dialysate collected in the loop was injected on an analytical column (Spherisorb 3 µ ODS2, 2X150 mm, Keystone Scientific).
(§3) The method used to measure monoamines was as described by Perry and Fuller (1993). Briefly, dialysate collected in the 20 µl loop was assayed for 5-HT, NE and DA. The 20 µl injection went onto the column with a mobile phase which resolved NE, DA, and 5-HT: 75 mM potassium acetate, 0.5 mM ethylenediaminetetraacetic acid, 1.4 mM sodium octanesulfonic acid and 8% methanol, pH 4.9. The mobile phase for the amine column was delivered with a flow programmable pump at an initial flow rate of 0.2 ml/min increasing to 0.3 ml/min at 5 min then decreasing back to 0.2 ml/min at 26 min with a total run time of 30 min. Flow programming was used to elute the 5-HT within a 25 min time period. The electrochemical detector (EG&G, Model 400) for the amine column was set at a potential of 400 mV and a sensitivity of 0.2 nA/V. The data was collected and analyzed with a Hewlett-Packard HP1000 chromatography system which measured peak heights and calculated sample concentrations. Basal levels were measured for at least 90 minutes prior to drug administration.
(§4) Extracellular levels of the amines in microdialysates were calculated by comparing peak heights with those of 50 pmole standards. The mean value of the four samples immediately preceding drug administration served as the basal level for each experiment and data was converted to percent of basal. Paired t-tests were used to compare the mean of the basal values from the time point immediately preceding drug administration to those of each time point thereafter.
(§5) The rats were prepared as described above, and the indole was administered subcutaneously at 3 mg/kg 100 minutes after the start of the experiment. Fluoxetine was administered intraperitoneally at 10 mg/kg, together with a second dose of the indole at 3 mg/kg, 210 minutes after the start of the experiment. Each data point reported here represents a single animal.
(§6) The results are shown below as percent of baseline of the three monoamines, at various times after the start of the experiment. Each data point represents the average of three or more animals.
(§7) This test was carried out as described in Test 1, using 4-(2-hydroxy-3-cyclohexylaminopropoxy)indole, maleate, at 3 mg/kg administered at 120 minutes, and (+)-duloxetine, hydrochloride, at 4 mg/kg administered with a second dose of the indole at 3 mg/kg, at 270 minutes. Results are reported as in Test 2 above. The 5-HT results are the average of three animals, and the other results are the average of four animals.

DA = assay: Microdialysis assays of monoamines: DA level in hypothalamus dialysate of conscious rats
Protocol: as §1, §2, §3, §4, §5, §6, §7

5-HT = assay: Microdialysis assays of monoamines: 5-HT level in hypothalamus dialysate of conscious rats; settings: for 5-HT level measured in the dialysate, % of baseline: Test 1, single animal; for 5-HT, percent of baseline: Test 3, average of three animals
Protocol: as §1, §2, §3, §4, §5, §6, §7

[1] = Test 2, 120 min (time of first (-)-pindolol dose, 5 mg/kg), average of three or more animals
[2] = Test 2, 150 min, (-)-pindolol 5 mg/kg at 120 min, average of three or more animals
[3] = Test 2, 180 min, (-)-pindolol 5 mg/kg at 120 min, average of three or more animals
[4] = Test 2, 210 min, (-)-pindolol 5 mg/kg at 120 min, average of three or more animals
[5] = Test 3, 120 min (time of first indole dose, 3 mg/kg), average of four animals
[6] = Test 3, 150 min, the indole 3 mg/kg at 120 min, average of four animals
[7] = Test 3, 180 min, the indole 3 mg/kg at 120 min, average of four animals
[8] = Test 3, 210 min, the indole 3 mg/kg at 120 min, average of four animals
[9] = Test 3, 240 min, the indole 3 mg/kg at 120 min, average of four animals
[10] = Test 3, 270 min, the indole 3 mg/kg at 120 min, average of four animals

## CC(C)NCC(O)COc1cccc2[nH]ccc12 (single isomer, unassigned; (-)) [(-)-pindolol, 4-(2-hydroxy-3-isopropylaminopropoxy)-indole]
NE; [1]
  NE, percent of baseline: 90%
NE; [2]
  NE, percent of baseline: 100%
NE; [3]
  NE, percent of baseline: 120%
NE; [4]
  NE, percent of baseline: 110%
DA; [1]
  DA, percent of baseline: 90%
DA; [2]
  DA, percent of baseline: 90%
DA; [3]
  DA, percent of baseline: 70%
DA; [4]
  DA, percent of baseline: 100%

## O=C(O)/C=C\C(=O)O.OC(CNC1CCCCC1)COc1cccc2[nH]ccc12 (centres unmarked) [4-(2-hydroxy-3-cyclohexylaminopropoxy)indole, maleate]
NE; Test 1, by 210 min, the indole 3 mg/kg s.c. at 100 min, single animal
  NE level, relative to baseline: nearly to baseline
NE; Test 1, highest level after the indole 3 mg/kg s.c. at 100 min, single animal
  NE level, % of baseline: about 180%
NE; [5]
  NE, percent of baseline: 100%
NE; [6]
  NE, percent of baseline: 160%
NE; [7]
  NE, percent of baseline: 140%
NE; [8]
  NE, percent of baseline: 140%
NE; [9]
  NE, percent of baseline: 130%
NE; [10]
  NE, percent of baseline: 150%
5-HT; 210 min after start, the indole 3 mg/kg s.c. at 100 min
  5-HT level measured in the dialysate, % of baseline: about 80%
5-HT; lowest level after the indole 3 mg/kg s.c. at 100 min
  5-HT level measured in the dialysate, % of baseline: about 50%
5-HT; 120 min (time of first indole dose, 3 mg/kg)
  5-HT, percent of baseline: 90%
5-HT; 150 min, the indole 3 mg/kg at 120 min
  5-HT, percent of baseline: 130%
5-HT; 180 min, the indole 3 mg/kg at 120 min
  5-HT, percent of baseline: 130%
5-HT; 210 min, the indole 3 mg/kg at 120 min
  5-HT, percent of baseline: 80%
5-HT; 240 min, the indole 3 mg/kg at 120 min
  5-HT, percent of baseline: 90%
5-HT; 270 min, the indole 3 mg/kg at 120 min
  5-HT, percent of baseline: 80%
DA; Test 1, 120 min, the indole 3 mg/kg s.c. at 100 min, single animal
  DA level, % of baseline: about 210%
DA; Test 1, 210 min, the indole 3 mg/kg s.c. at 100 min, single animal
  DA level, relative to baseline: near baseline
DA; [5]
  DA, percent of baseline: 70%
DA; [6]
  DA, percent of baseline: 150%
DA; [7]
  DA, percent of baseline: 130%
DA; [8]
  DA, percent of baseline: 110%
DA; [9]
  DA, percent of baseline: 100%
DA; [10]
  DA, percent of baseline: 110%
